The NIST ThermoML archive (doi:10.1016/j.tca.2007.10.001)
± gives the expanded uncertainty stated by the source.

What was measured:
[1] = molar heat capacity at constant pressure; conditions: 101.33 kPa, Crystal
[2] = Molar enthalpy of transition or fusion; conditions: Crystal
[3] = Crystal; DTA

c1cnc2c(c1)ccc1cccnc12 [1,10-phenanthroline]
[1]
Conditions	molar heat capacity at constant pressure [J/K/mol]
298.2 K	115 ± 37
300.2 K	116 ± 37
302.2 K	117 ± 37
304.2 K	125 ± 40
306.2 K	127 ± 41
308.2 K	133 ± 43
310.2 K	140 ± 45
312.2 K	150 ± 48
314.2 K	156 ± 50
316.2 K	165 ± 53
318.2 K	175 ± 56
320.2 K	184 ± 59
322.2 K	192 ± 61
324.2 K	199 ± 64
326.2 K	206 ± 66
328.2 K	213 ± 68
330.2 K	221 ± 71
332.2 K	226 ± 72
334.2 K	235 ± 75
336.2 K	237 ± 76
338.2 K	245 ± 78
340.2 K	247 ± 79
342.2 K	253 ± 81
344.2 K	253 ± 81
346.2 K	256 ± 82
348.2 K	260 ± 83
350.2 K	263 ± 84
352.2 K	265 ± 85
354.2 K	270 ± 86
356.2 K	271 ± 87
358.2 K	276 ± 88
360.2 K	279 ± 89

Conditions	Molar enthalpy of transition or fusion [kcal/mol]	Triple point temperature [K]
[2]	2.82 ± 0.884	–
[3]	–	391.1 ± 0.6

Cc1ccc2ccc3ccc(C)nc3c2n1 [2,9-dimethyl-1,10-phenanthroline]
[1]
Conditions	molar heat capacity at constant pressure [J/K/mol]
298.2 K	253 ± 81
303.2 K	274 ± 88
308.2 K	292 ± 93
313.2 K	306 ± 98
318.2 K	321 ± 100
323.2 K	331 ± 110
328.2 K	345 ± 110
333.2 K	354 ± 110
338.2 K	361 ± 120
343.2 K	370 ± 120
348.2 K	373 ± 120
353.2 K	374 ± 120
358.2 K	383 ± 120
363.2 K	383 ± 120
368.2 K	387 ± 120
373.2 K	384 ± 120
378.2 K	386 ± 120
383.2 K	390 ± 120
388.2 K	386 ± 120
393.2 K	383 ± 120

Conditions	Molar enthalpy of transition or fusion [kcal/mol]	Triple point temperature [K]
[2]	4.21 ± 1.2	–
[3]	–	435.9 ± 1
